In PubChem BioAssay (NCI) one finds TGI data, which are given here for 14 compounds.

Values joined by “and” are separate entries in the source; they are usually repeats but may differ in a detail not shown here. Equal values may be shown once.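 1) Cells in 96-well plates. 2) Compound, 48 h, 5 concentrations. 3) Linear interpolation between surrounding doses. 4) Unreached endpoint = highest concentration. The concentration for full growth arrest is given as TGI.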

Test systems include A498 renal; CAKI-1 renal; HOP-92 NSCLC; HT29 colon; RXF 393 renal; SK-MEL-2 melanoma; SK-MEL-28 melanoma; U251 CNS; UACC-62 melanoma.
What all share (experiment): NCI tumour cell line growth inhibition, 48 h

`O=C1CCCc2cc3c(cc21)CC1(C3)Cc2cc3c(cc2C1)C(=O)CCC3`: the TGI is 53.6 µM with A498 renal; above 88 µM with CAKI-1 renal; 82.1 µM with HOP-92 NSCLC; 7.41 µM in the assay with HT29 colon; above 29.3 µM in the assay with RXF 393 renal; 15.6 µM with SK-MEL-2 melanoma. The TGI is 41.7 µM with SK-MEL-28 melanoma, 36.5 µM in the assay with U251 CNS and 30.9 µM in the assay with UACC-62 melanoma.
Regarding `CCOC(=O)/C=C(/C(=O)OCC)n1cc(C)c(=O)[nH]c1=O`, the TGI in the assay on A498 renal is 26.4 µM; with CAKI-1 renal it was 2.57 µM; in the assay on HOP-92 NSCLC, 3.72 µM; with HT29 colon, 15.1 µM; in the assay with RXF 393 renal it was 4.52 µM; with SK-MEL-2 melanoma, 18.4 µM. The TGI in the assay on SK-MEL-28 melanoma stood at 15.5 µM; with U251 CNS, 18.8 µM; in the assay with UACC-62 melanoma, 15.8 µM.
In the case of `CS(=O)(=O)Nc1ccc(NCc2cnc3ccc4[nH]cccc4c23)cc1`, the TGI with A498 renal is 51.8 µM; with CAKI-1 renal, 65 µM; in the assay with HOP-92 NSCLC, above 100 µM; in the assay with HT29 colon, above 100 µM; with RXF 393 renal it was 41.9 µM; in the assay on SK-MEL-2 melanoma, 32 µM. Besides, the TGI with SK-MEL-28 melanoma came out at 66.4 µM; in the assay on U251 CNS, 68.9 µM; in the assay with UACC-62 melanoma, 30.7 µM.
Regarding `N#CC(C#N)[C@@H]1CCC=C(Sc2ccccc2)[C@H]1Sc1ccccc1`, the TGI with A498 renal was 26.9 µM; with CAKI-1 renal, 8.29 µM; with HOP-92 NSCLC, 13.7 µM; in the assay with HT29 colon, 13.8 µM; with RXF 393 renal, 4.84 µM; in the assay with SK-MEL-2 melanoma, 12.2 µM. Also, the TGI worked out at 7.57 µM with SK-MEL-28 melanoma, 23.6 µM in the assay with U251 CNS and 13.9 µM in the assay with UACC-62 melanoma.
In the case of `O=C(/C=C/c1ccc(O)c(O)c1)O[C@H]1CCCC[C@@H]1OC(=O)/C=C/c1ccc(O)c(O)c1`, the TGI in the assay with A498 renal was 43.2 µM; with CAKI-1 renal, above 100 µM; in the assay on HOP-92 NSCLC, 52.1 µM; in the assay with RXF 393 renal it was 27.6 µM; in the assay with SK-MEL-2 melanoma, 84.3 µM; in the assay with SK-MEL-28 melanoma, 44.1 µM. Moreover, the TGI in the assay on U251 CNS was above 100 µM; with UACC-62 melanoma, 27.4 µM.
As to `CC(=O)OC1OC(C2c3cccc(O)c3C(=O)c3c(O)cc(CO)cc32)C(O)C(O)C1O` (centres undefined), the TGI was 26.4 µM in the assay on A498 renal; 7.51 µM and 7.82 µM with CAKI-1 renal; 9.38 µM in the assay with HOP-92 NSCLC; above 100 µM with HT29 colon; 29.8 µM and 55.5 µM in the assay with RXF 393 renal; 6.11 µM and 5.71 µM in the assay with SK-MEL-2 melanoma. Also, the TGI is 9.63 µM in the assay on SK-MEL-28 melanoma; 22.6 µM with U251 CNS; 16.6 µM and 17.7 µM with UACC-62 melanoma.
For the compound `O=S(=O)(N1CCCCN(S(=O)(=O)C(F)(F)F)CCCN(S(=O)(=O)C(F)(F)F)CCCCN(S(=O)(=O)C(F)(F)F)CCCN(S(=O)(=O)C(F)(F)F)CCCCN(S(=O)(=O)C(F)(F)F)CCCN(S(=O)(=O)C(F)(F)F)CCCCN(S(=O)(=O)C(F)(F)F)CCC1)C(F)(F)F`, the TGI was above 31.6 µM in the assay on A498 renal; above 31.6 µM in the assay on CAKI-1 renal; above 31.6 µM in the assay with HOP-92 NSCLC; above 31.6 µM with HT29 colon; above 31.6 µM in the assay on RXF 393 renal; above 100 µM in the assay on SK-MEL-2 melanoma. For the same compound, the TGI in the assay with SK-MEL-28 melanoma was above 31.6 µM; in the assay with U251 CNS it was above 100 µM; in the assay on UACC-62 melanoma it was above 31.6 µM.
Consider `CN(C(=O)C12C3(C(=O)O)C4C5(C(=O)O)C3C1(C(=O)O)C5C42C(=O)O)C(C)(C)C` (centres undefined), for which the TGI in the assay with A498 renal, with CAKI-1 renal, in the assay on HOP-92 NSCLC, with HT29 colon, in the assay on RXF 393 renal and with SK-MEL-2 melanoma was above 100 µM throughout. The TGI in the assay with SK-MEL-28 melanoma, in the assay on U251 CNS and in the assay on UACC-62 melanoma was above 100 µM throughout.
Regarding `COc1ccc(N2C(=O)C3c4[nH]c5ccc(OC)cc5c4C4CCC(c5ccccc5)CC4C3C2=O)cc1` (centres undefined), the TGI with A498 renal is 37.4 µM; in the assay on CAKI-1 renal, 40.6 µM; in the assay with HOP-92 NSCLC it was 35.9 µM; in the assay with HT29 colon it was above 40.5 µM; with RXF 393 renal it was 25 µM; with SK-MEL-2 melanoma, 47.4 µM. The TGI worked out at 37 µM with SK-MEL-28 melanoma, 22.8 µM in the assay with U251 CNS and 36.4 µM with UACC-62 melanoma.
In the case of `CN(C)c1cccc2c(S(=O)(=O)NCCCNCCN)cccc12`, the TGI in the assay with A498 renal is 91 µM; with CAKI-1 renal, above 100 µM; in the assay on HOP-92 NSCLC it was 80.4 µM; in the assay on HT29 colon, above 100 µM; in the assay with RXF 393 renal, 75 µM; in the assay with SK-MEL-2 melanoma, 86.7 µM. In addition, the TGI in the assay with SK-MEL-28 melanoma, with U251 CNS and in the assay with UACC-62 melanoma was above 100 µM in each case.
`Oc1c(O)c(Cc2ccccc2)c(Cc2ccccc2)c(Cc2ccccc2)c1Cc1ccccc1`: the TGI in the assay with A498 renal, with CAKI-1 renal, with HOP-92 NSCLC, with HT29 colon, with RXF 393 renal and in the assay on SK-MEL-2 melanoma was above 10 µM throughout. The TGI in the assay with SK-MEL-28 melanoma, in the assay with U251 CNS and with UACC-62 melanoma was above 10 µM each time.
As to `CCOC(=O)/C=C/C1=C(Br)[C@@]2(C)CC[C@@H]3c4ccc(O)cc4CC[C@H]3[C@@H]2C1`, the TGI in the assay on A498 renal is 32 µM; with CAKI-1 renal, 30 µM; with HOP-92 NSCLC, 23.8 µM; with HT29 colon, 27.8 µM; in the assay with RXF 393 renal, 29.5 µM; in the assay on SK-MEL-2 melanoma, 28.1 µM. Besides, the TGI with SK-MEL-28 melanoma was 30 µM; in the assay with U251 CNS, 30.3 µM; with UACC-62 melanoma it was 19.4 µM.
As for `Oc1cc(F)cc2cccnc12`, the TGI was above 68.1 µM in the assay on A498 renal; above 100 µM with CAKI-1 renal; 3.1 µM with HOP-92 NSCLC; above 36.7 µM in the assay on HT29 colon; 46.4 µM in the assay with RXF 393 renal; above 100 µM in the assay with SK-MEL-2 melanoma. The TGI is above 100 µM in the assay on SK-MEL-28 melanoma, above 100 µM in the assay on U251 CNS and above 42.6 µM in the assay on UACC-62 melanoma.
Turning to `O=C1C2CCCCC2C(=O)N1n1c(Cc2ccccc2)n[nH]c1=O` (centres undefined), the TGI with A498 renal, in the assay on CAKI-1 renal, in the assay with HOP-92 NSCLC, with HT29 colon, with RXF 393 renal and with SK-MEL-2 melanoma was above 100 µM throughout. Also, the TGI in the assay with U251 CNS and in the assay with UACC-62 melanoma was above 100 µM in each case.
